According to patent US20060194814A1, “Benzamide compounds” (priority 2003, published 2006):
“Also recorded” adds a separate entry of the source. Like-named read-outs stand apart in the source and are kept apart here.

What was measured:
[1] = test system: HIV-1 IIIB strain; test: HIV-1 IIIB replication in HeLa indicator cells (AV-Finder-HIV assay), no pre-medication; format: cell-based; conditions: for efficacy in reducing HIV-1 IIIB replication compared to AZT, ddI or 3TC: human cells
[2] = test system: HIV-1 IIIB strain; test: HIV-1 IIIB replication in HeLa cells, 24 hours pre-medication; format: cell-based
[3] = test system: multi-drug resistant HIV MDR-769 strain; test: HIV MDR 769 strain replication in HeLa cells, without pre-medication; format: cell-based
[4] = test system: HIV-1 IIIB strain; test: HIV-1 IIIB replication in HeLa cells, 48 hours pre-medication; format: cell-based; conditions: 48 hours pretreatment, read-out: IC50 of inhibition of HIV replication
[5] = test system: Y1 mouse adrenal tumor cells; test: dbcAMP-induced 20á-hydroxyprogesterone synthesis in Y1 cells; format: cell-based
Protocol: Culture media were then changed and cells were stimulated with 1 mM dbcAMP and the treatment for 24 to 48 hours. […] The synthesis of 20 —OH progesterone and progesterone in Y1 and MA-10 cell media respectively were measured by RIA (Brown et al., 1992). H295R human adrenal tumor cells were seeded in 48-well plates at 10^5 cells/well and incubated for 24 hours. […] At the end of the incubation time period, cells were treated with 1 mM dbcAMP for 48 hours. Cortisol levels in the media were determined by radioimmunoassay as previously described (Amri et al., 1996).

[6] = test system: HeLa cells; test: MTT cytotoxicity assay after the HIV replication protocol; format: cell-based, human; conditions: MTT cytotoxicity assay
[7] = no pre-medication, concentrations up to 1 μM

CCN(CC)CCNC(=O)c1ccc(N)cc1 [SP100, procainamide]
efficacy in reducing HIV-1 IIIB replication compared to AZT, ddI or 3TC [1]: efficacy higher than AZT, ddI or 3TC | efficacy on viral replication compared to AZT [2]: effective but at the same extent as AZT | effect on HIV MDR 769 strain replication [3]: effectively blocked

CC1CN(C(=O)C(Cc2c[nH]c3ccccc23)NC(=O)c2ccc([N+](=O)[O-])cc2)CCN1C(=O)C1CC1 (stereo not drawn) [SP010, N-[2-(4-cyclopropanecarbonyl-3-methyl-piperazin-1-yl)-1-(1H-indol-3-yl-methyl)-2-oxo-ethyl]-4-nitro-benzamide]
inhibition at 0.01 µM ([1]; Human immunodeficiency virus 1, IIIB, HeLa, no pre-medication, at 0.01 μM, read-out: strongest inhibition of viral replication): 55.6 ± 2.12% | efficacy in reducing HIV-1 IIIB replication compared to AZT, ddI or 3TC [1]: efficacy higher than AZT, ddI or 3TC | inhibition of viral replication [1, 7]: 40% | potency compared to ddI [1, 7]: more potent that ddI | efficacy in inhibiting viral replication compared to ddI ([1]; within the range of 1 nM to 1 μM): higher efficacy than ddI | concentration at the peak of the inhibitory activity [2]: 0.03 nM | IC50 ([4]; Human immunodeficiency virus 1, IIIB, HeLa): 0.01 nM | effect on HIV MDR 769 strain replication [3]: effectively blocked | maximal inhibition of MDR HIV strain replication [3]: 50% | effect on dbcAMP-induced 20á-hydroxyprogesterone production ([5]; Y1 cells): decreased in a dose-dependent manner | potency on cAMP-corticosteroid formation compared to procaine ([5]; even at a concentration as low as 1 μM): as potent as procaine

Nc1ccn([C@@H]2CS[C@H](CO)O2)c(=O)n1 [3TC]
inhibition of HIV-1 IIIB viral replication reached ([1]; no pre-medication, maximal inhibition reached (maximal concentrations)): 90%

O=c1[nH]cnc2c1ncn2[C@H]1CC[C@@H](CO)O1 [ddI]
strongest inhibition of viral replication ([1]; no pre-medication, at 0.01 μM): 26.37±26.11% | IC50 [6]: 89 µM

Cc1cn([C@H]2C[C@H](N=[N+]=[N-])[C@@H](CO)O2)c(=O)[nH]c1=O [AZT]
inhibition of the replication ([2]; at 30 pM): < 30% | IC50 [4]: 30 nM | effect on HIV MDR 769 strain replication [3]: not effective; also recorded: ineffective | IC50 [6]: 161 µM
